Several values for one entry are separate records, joined by “and”; a condition that tells them apart may be missing. Equal values may be shown once.
System: Swiss mice, Sarcoma 180 sc, mean tumor weight T/C
Assay: NCI In Vivo Anticancer Drug Screen. Data for tumor model Sarcoma 180 (subcutaneous) in Swiss mice
Settings: endpoint: mean tumor weight, higher = larger tumour
Summary of the method: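 T/C ratio: treated over vehicle-treated controls, measuring survival or tumor size in transplanted-tumor mice.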

With `C[C@@H]1C[C@H]2CC[C@H](O2)[C@H](C)C(=O)O[C@@H](C)C[C@@H]2CC[C@@H](O2)[C@@H](C)C(=O)O[C@H](C)C[C@H]2CC[C@H](O2)[C@H](C)C(=O)O[C@@H](C)C[C@@H]2CC[C@@H](O2)[C@@H](C)C(=O)O1` the T/C (dose: 1.25 mg/kg/injection, schedule: Q#A X014 (ip), vehicle: olive oil, sesame oil, peanut oil) was 96 % of control, the T/C (dose: 2.5 mg/kg/injection, schedule: Q#A X014 (ip), vehicle: olive oil, sesame oil, peanut oil) was 88 % of control and the T/C (dose: 5.0 mg/kg/injection, schedule: Q#A X014 (ip), vehicle: olive oil, sesame oil, peanut oil) was 90 % of control. The T/C (dose: 5.0 mg/kg/injection, schedule: Q#A X014 (sc), vehicle: olive oil, sesame oil, peanut oil) was 82 % of control, the T/C (dose: 9.0 mg/kg/injection, schedule: Q#A X014 (ip), vehicle: carboxymethylcellulose (CMC)) was 89 % of control and the T/C (dose: 10.0 mg/kg/injection, schedule: Q#A X014 (ip), vehicle: olive oil, sesame oil, peanut oil) was 73 % of control and 83 % of control. The T/C (dose: 10.0 mg/kg/injection, schedule: Q#A X014 (sc), vehicle: olive oil, sesame oil, peanut oil) was 81 % of control, the T/C (dose: 15.0 mg/kg/injection, schedule: Q#A X014 (sc), vehicle: olive oil, sesame oil, peanut oil) was 80 % of control and the T/C (dose: 18.0 mg/kg/injection, schedule: Q#A X014 (ip), vehicle: carboxymethylcellulose (CMC)) was 111 % of control. For the same compound, the T/C (dose: 20.0 mg/kg/injection, schedule: Q#A X014 (ip), vehicle: carboxymethylcellulose (CMC)) was 57 % of control, the T/C (dose: 25.0 mg/kg/injection, schedule: Q#A X014 (ip), vehicle: carboxymethylcellulose (CMC)) was 53 % of control and the T/C (dose: 25.0 mg/kg/injection, schedule: Q#A X014 (oral), vehicle: methylcellulose (MC)) was 77 % of control. For the same compound, the T/C (dose: 30.0 mg/kg/injection, schedule: Q#A X014 (ip), vehicle: carboxymethylcellulose (CMC)) was 89 % of control, the T/C (dose: 30.0 mg/kg/injection, schedule: Q#A X014 (sc), vehicle: olive oil, sesame oil, peanut oil) was 50 % of control and the T/C (dose: 35.0 mg/kg/injection, schedule: Q#A X014 (ip), vehicle: carboxymethylcellulose (CMC)) was 60 % of control. The T/C (dose: 35.0 mg/kg/injection, schedule: Q#A X014 (sc), vehicle: olive oil, sesame oil, peanut oil) was 26 % of control, the T/C (dose: 40.0 mg/kg/injection, schedule: Q#A X014 (ip), vehicle: carboxymethylcellulose (CMC)) was 64 % of control and the T/C (dose: 40.0 mg/kg/injection, schedule: Q#A X014 (sc), vehicle: olive oil, sesame oil, peanut oil) was 32 % of control. The T/C (dose: 50.0 mg/kg/injection, schedule: Q#A X014 (oral), vehicle: methylcellulose (MC)) was 114 % of control, the T/C (dose: 50.0 mg/kg/injection, schedule: Q#A X014 (sc), vehicle: olive oil, sesame oil, peanut oil) was 26 % of control and the T/C (dose: 54.0 mg/kg/injection, schedule: Q01DX007 (sc), vehicle: methylcellulose (MC)) was 106 % of control. For the same compound, the T/C (dose: 80.0 mg/kg/injection, schedule: Q01DX007 (sc), vehicle: methylcellulose (MC)) was 77 % of control, the T/C (dose: 100.0 mg/kg/injection, schedule: Q#A X014 (oral), vehicle: methylcellulose (MC)) was 93 % of control and the T/C (dose: 108.0 mg/kg/injection, schedule: Q03DX003 (sc), vehicle: methylcellulose (MC)) was 71 % of control. The T/C (dose: 120.0 mg/kg/injection, schedule: Q01DX007 (sc), vehicle: methylcellulose (MC)) was 101 % of control, the T/C (dose: 162.0 mg/kg/injection, schedule: Q03DX003 (sc), vehicle: methylcellulose (MC)) was 115 % of control and the T/C (dose: 180.0 mg/kg/injection, schedule: Q01DX007 (sc), vehicle: methylcellulose (MC)) was 100 % of control. For the same compound, the T/C (dose: 200.0 mg/kg/injection, schedule: Q#A X014 (oral), vehicle: methylcellulose (MC)) was 95 % of control, the T/C (dose: 240.0 mg/kg/injection, schedule: Q03DX003 (sc), vehicle: methylcellulose (MC)) was 109 % of control and the T/C (dose: 360.0 mg/kg/injection, schedule: Q03DX003 (sc), vehicle: methylcellulose (MC)) was 102 % of control. For the same compound, the T/C (dose: 540.0 mg/kg/injection, schedule: Q03DX003 (sc), vehicle: methylcellulose (MC)) was 152 % of control.

With `Cc1ccc2[nH]c(C)c(CCN)c2c1` the T/C (dose: 44.0 mg/kg/injection, schedule: Q01DX007 (ip), vehicle: water) was 95 % of control, the T/C (dose: 66.0 mg/kg/injection, schedule: Q01DX007 (ip), vehicle: water) was 119 % of control and the T/C (dose: 100.0 mg/kg/injection, schedule: Q01DX007 (ip), vehicle: water) was 97 % of control.

`CO[C@H]1C(=O)C[C@H]2[C@@H]3CC=C4C[C@@H](O)CC[C@]4(C)[C@H]3CC[C@]12C` was tested, and the T/C (dose: 2.5 mg/kg/injection, schedule: Q01DX007 (sc), vehicle: steriod suspending solution) was 92 % of control, the T/C (dose: 5.0 mg/kg/injection, schedule: Q01DX007 (sc), vehicle: steriod suspending solution) was 101 % of control and the T/C (dose: 10.0 mg/kg/injection, schedule: Q01DX007 (sc), vehicle: steriod suspending solution) was 89 % of control. The T/C (dose: 20.0 mg/kg/injection, schedule: Q01DX007 (sc), vehicle: steriod suspending solution) was 94 % of control, the T/C (dose: 40.0 mg/kg/injection, schedule: Q01DX007 (sc), vehicle: steriod suspending solution) was 93 % of control and 107 % of control and the T/C (dose: 80.0 mg/kg/injection, schedule: Q01DX007 (sc), vehicle: steriod suspending solution) was 116 % of control and 117 % of control.

With `C[C@H](N)C(=O)N[C@@H]1[C@H]2C(=C(O)C[C@@H](O)[C@@H]2O)C(=O)O[C@@H]1C` the T/C (dose: 250.0 mg/kg/injection, schedule: Q01DX007 (ip), vehicle: carboxymethylcellulose (CMC)) was 66 % of control, the T/C (dose: 500.0 mg/kg/injection, schedule: Q01DX007 (ip), vehicle: carboxymethylcellulose (CMC)) was 42 % of control and the T/C (dose: 1000.0 mg/kg/injection, schedule: Q01DX007 (ip), vehicle: carboxymethylcellulose (CMC)) was 12 % of control.

With `COC1C(OC(N)=O)C(O)C(Oc2ccc3c(O)c(NC(=O)c4ccc(O)c(CC=C(C)C)c4)c(=O)oc3c2C)OC1(C)C` (stereo not drawn) the T/C (dose: 200.0 mg/kg/injection, schedule: Q01DX007 (ip), vehicle: saline) was 102 % of control.

In the case of `ON=C1c2cc(Cl)ccc2-c2ccc(Cl)cc21`, the T/C (dose: 26.6 mg/kg/injection, schedule: Q01DX007 (ip), vehicle: carboxymethylcellulose (CMC)) is reported as 77 % of control, the T/C (dose: 40.0 mg/kg/injection, schedule: Q01DX007 (ip), vehicle: carboxymethylcellulose (CMC)) is reported as 71 % of control and the T/C (dose: 60.0 mg/kg/injection, schedule: Q01DX007 (ip), vehicle: carboxymethylcellulose (CMC)) is reported as 61 % of control. The T/C (dose: 90.0 mg/kg/injection, schedule: Q01DX007 (ip), vehicle: carboxymethylcellulose (CMC)) was 57 % of control.

`CC(=O)[C@H]1CC[C@H]2[C@@H]3C[C@H](F)C4=CC(=O)CC[C@]4(C)[C@@]3(F)[C@@H](O)C[C@]12C` was tested, and the T/C (dose: 25.0 mg/kg/injection, schedule: Q01DX007 (sc), vehicle: steriod suspending solution) was 65 % of control, the T/C (dose: 37.0 mg/kg/injection, schedule: Q01DX007 (sc), vehicle: steriod suspending solution) was 49 % of control and the T/C (dose: 282.0 mg/kg/injection, schedule: Q01DX007 (sc), vehicle: steriod suspending solution) was 41 % of control. For the same compound, the T/C (dose: 423.0 mg/kg/injection, schedule: Q01DX007 (sc), vehicle: steriod suspending solution) was 36 % of control.

In the case of `Nc1nc(=O)n(C2CC(O)C(CO)O2)cc1F` (stereo not drawn), the T/C (dose: 22.0 mg/kg/injection, schedule: Q#A X014 (ip), vehicle: saline) is reported as 10 % of control, the T/C (dose: 33.5 mg/kg/injection, schedule: Q#A X014 (ip), vehicle: saline) is reported as 7 % of control and the T/C (dose: 50.0 mg/kg/injection, schedule: Q#A X014 (ip), vehicle: saline) is reported as 3 % of control. The T/C (dose: 75.0 mg/kg/injection, schedule: Q#A X014 (ip), vehicle: saline) was 2 % of control.

With `CC(C)C(=O)OCC1OC(n2cnc3c(=S)nc[nH]c32)C(OC(=O)C(C)C)C1OC(=O)C(C)C` (stereo not drawn) the T/C (dose: 17.0 mg/kg/injection, schedule: Q01DX007 (ip), vehicle: steriod suspending solution) was 80 % of control, the T/C (dose: 24.0 mg/kg/injection, schedule: Q01DX007 (ip), vehicle: carboxymethylcellulose (CMC)) was 76 % of control and the T/C (dose: 25.0 mg/kg/injection, schedule: Q01DX007 (ip), vehicle: steriod suspending solution) was 61 % of control. The T/C (dose: 37.0 mg/kg/injection, schedule: Q01DX007 (ip), vehicle: carboxymethylcellulose (CMC)) was 38 % of control, the T/C (dose: 37.0 mg/kg/injection, schedule: Q01DX007 (ip), vehicle: steriod suspending solution) was 66 % of control and the T/C (dose: 55.0 mg/kg/injection, schedule: Q01DX007 (ip), vehicle: carboxymethylcellulose (CMC)) was 31 % of control and 47 % of control. The T/C (dose: 55.0 mg/kg/injection, schedule: Q01DX007 (ip), vehicle: steriod suspending solution) was 27 % of control and 37 % of control, the T/C (dose: 84.0 mg/kg/injection, schedule: Q01DX007 (ip), vehicle: carboxymethylcellulose (CMC)) was 25 % of control and 31 % of control and the T/C (dose: 84.0 mg/kg/injection, schedule: Q01DX007 (ip), vehicle: steriod suspending solution) was 52 % of control. The T/C (dose: 125.0 mg/kg/injection, schedule: Q01DX007 (ip), vehicle: carboxymethylcellulose (CMC)) was 8 % of control, the T/C (dose: 125.0 mg/kg/injection, schedule: Q01DX007 (ip), vehicle: steriod suspending solution) was 26 % of control and the T/C (dose: 188.0 mg/kg/injection, schedule: Q01DX007 (ip), vehicle: steriod suspending solution) was 14 % of control and 17 % of control. The T/C (dose: 282.0 mg/kg/injection, schedule: Q01DX007 (ip), vehicle: steriod suspending solution) was 16 % of control and the T/C (dose: 423.0 mg/kg/injection, schedule: Q01DX007 (ip), vehicle: steriod suspending solution) was 16 % of control.

For `c1ccc(CNc2ncnc3[nH]ncc23)cc1`, the T/C (dose: 8.0 mg/kg/injection, schedule: Q01DX007 (ip), vehicle: carboxymethylcellulose (CMC)) was 87 % of control, the T/C (dose: 16.0 mg/kg/injection, schedule: Q01DX007 (ip), vehicle: carboxymethylcellulose (CMC)) was 106 % of control and the T/C (dose: 31.0 mg/kg/injection, schedule: Q01DX007 (ip), vehicle: carboxymethylcellulose (CMC)) was 62 % of control.
